{
  "source": "patent US20110236405A1",
  "about": "“COAGULATION FACTOR MODULATION FOR CONTROLLING TRANSPLANT ORGAN SIZE” (Tel HaShomer Medical Research Infrastructure and Services …, priority 2008, published 2011)",
  "molecules": {"B1": {"name": "G-CSF: recombinant human G-CSF (Neupogen, Amgen) (protein, chains of the INN, looked up)", "chain": "MTPLGPASSLPQSFLLKCLEQVRKIQGDGAALQEKLCATYKLCHPEELVLLGHSLGIPWAPLSSCPSQALQLAGCLSQLHSGLFLYQGLLQALEGISPELGPTLDTLQLDVADFATTIWQQMEELGMAPALQPTQGAMPAFASAFQRRAGGVLVASHLQSFLEVSYRVLRHLAQP"}},
  "format_in_all_cases": "in vivo, mouse",
  "key": {"C57BL mice": {"system": "C57BL mice", "assay": "G-CSF induced splenomegaly in C57BL and C57BL hemophilic mice", "settings": "for effect on G-CSF induced splenomegaly: C57BL mice, daily treatment plus G-CSF, versus G-CSF alone; for average spleen weight: G-CSF treated", "procedure": "8 to 10 week old immune competent C57BL mice and C57BL hemophilic (C57BL Hem F8) mice were used for the G-CSF studies.\n(§1) 8-10 weeks old NOD-SCID or Factor VIII KO SCID mice were treated by daily subcutaneous injections of recombinant human G-CSF (Neupogen, Amgen) at a dose of 250 μg per kg per day for 7 days. To determine the spleen weight, 7 days after the initiation of G-CSF treatment, mice were euthanized and spleens were harvested.\nEnoxaparine (Clexane 20 mg/0.2 ml, Rhone-poulenc, France) was used at a dosage of 200 μg/mouse (dissolved in PBS) and 0.2 ml of the final solution was injected subcutaneously into each mouse once a day.\nDabigatran etexilate (Boehringer Ingelheim Pharma KG, Biberach, Germany) was administrated orally at dosage of 30 mg/kg. Final volume of 0.3 ml dissolved in DDW was administrated daily.\nThe palmitoylated peptides: pal-RCLSSSAVANRS (PAR1 antagonist, SEQ ID NO: 15) and pal-SGRRYGHALR (PAR4 antagonist, SEQ ID NO: 16) were prepared by solid-phase peptide synthesis using in situ neutralization/HBTU by Hadar Biotec, Israel.\nThe mice were treated by vehicle control, or with PAR1 antagonist or PAR4 antagonist at 0.5 mg/kg, intraperitonealy on daily basis."}, "[1]": {"system": "E42 pig liver precursor tissue implanted in Rag-/- mice", "assay": "Embryonic pig liver implant growth in Rag-/- mice, pig albumin serum ELISA", "procedure": "In addition, immune deficient RAG^−/− mice or RAG^−/− FVIII KO mice were used as hosts for the transplantation studies. To obtain RAG^−/− hemophilic mice (designated RAG^−/− FVIII KO mice), FVIII mutation was introduced into RAG^−/− mice, as was previously described. All mice were kept in small cages (up to five animals per cage) and fed sterile food.\nPig embryos were obtained from the Lahav Institute of Animal Research (Kibbutz Lahav, Israel). […] Warm ischemia time was less than 10 minutes and the embryos were transferred to cold PBS. Spleen, pancreas and liver precursors for transplantation were extracted under a light microscope and were kept in sterile conditions at 4° C. in RPMI 1640 (Biological Industries, Beit HaEmek, Israel) prior to transplantation. Cold ischemia time until transplantation was less than 2 hours.\nTransplantation of pig precursors was completed as previously described [Dekel, B. et al., Nat Med (2003) 9, 53-60]. Briefly, transplantation of the embryonic precursors was performed under general anesthesia (2.5% 2,2,2-Tribromoethanol, 97% in PBS, 10 ml/kg intraperitoneally). […]\nPig albumin in mouse serum was measured by a standard ELISA procedure using primary goat anti-pig albumin antibody (human, mouse, and bovine absorbed), affinity purified, and secondary pig specific horseradish-peroxidase conjugated antibody (Catalog Nos. A100-210A and A100-210P, Bethyl). […]"}, "[2]": {"system": "NOD-SCID or Factor VIII KO SCID mice", "assay": "G-CSF induced splenomegaly in NOD-SCID and Factor VIII KO SCID mice", "settings": "for average spleen weight: G-CSF 250 μg per kg per day s.c. for 7 days", "procedure": "8-10 week old immune deficient NOD-SCID or factor VIII KO-SCID mice (Weizmann Institute Animal Breeding Center, Rehovot, Israel) were used for G-CSF studies. To obtain immunodeficient hemophilic mice (designated factor VIII KO-SCID), FVIII-deficient mice were crossed with SCID mice, as was previously described [Aronovich, A. et al., Proc Natl Acad Sci USA (2006) 103: 19075-80].\nas §1\nHu Factor VIII was infused into Factor VIII KO SCID mice by osmotic pumps (Azlet pump model 1003D, 1 μl/hr rate, 100 μl total capacity with a continuous delivery for 3 days). Thus, 60 IU Hu factor VIII was dissolved in 100 μl PBS and delivered by the 1003D pump for 3 days. The pump was administrated into the peritoneal cavity. After 3 days, a similar new pump was administrated. Initial concentration of the Hu Factor VIII was calibrated based on Hu Factor VIII half life and its clearance rate [Mordenti, J. et al., Toxicol Appl Pharmacol (1996) 136: 75-81]."}},
  "note": "Values joined by “and” are separate entries in the source; they are usually repeats but may differ in a detail not shown here. Equal values may be shown once. Where no end group is shown, it is not given here. The star is where a group is joined. Palmitoyl = CCCCCCCCCCCCCCCC(=O)*",
  "data": [
    {"molecule": "pal-RCLSSSAVANRS (Palmitoyl-RCLSSSAVANRS) [PAR1 antagonist, palmitoylated peptide, PAR1 antagonist]", "values": [
      {"measurement": "effect on G-CSF induced splenomegaly", "setting": "C57BL mice", "result": "significantly enhanced"}
    ]},
    {"molecule": "pal-SGRRYGHALR (Palmitoyl-SGRRYGHALR) [PAR4 antagonist, palmitoylated peptide, PAR4 antagonist]", "values": [
      {"measurement": "effect on G-CSF induced splenomegaly", "setting": "C57BL mice", "result": "significantly enhanced"}
    ]},
    {"molecule": "Enoxaparine [Clexane]", "values": [
      {"measurement": "effect on G-CSF induced splenomegaly", "setting": "C57BL mice", "result": "marked enhancement"},
      {"measurement": "total average weight of the spleens", "setting": "C57BL mice; C57BL/6 mice, following G-CSF induction, Clexane 200 μg/mouse s.c. once a day", "result": "266 ± 91", "unit": "mg"},
      {"measurement": "pig albumin blood levels", "setting": "[1]; non-hemophilic recipients, days 7 and 21 post transplant, versus control recipients not receiving Clexane", "result": "marked enhancements"}
    ]},
    {"molecule": "CCCCCCOC(=O)NC(=N)c1ccc(NCc2nc3cc(C(=O)N(CCC(=O)OCC)c4ccccn4)ccc3n2C)cc1", "note": "[Dabigatran, Dabigatran etexilate]", "values": [
      {"measurement": "effect on G-CSF induced splenomegaly", "setting": "C57BL mice", "result": "marked enhancement"},
      {"measurement": "embryonic pig liver growth (pig albumin serum levels)", "setting": "[1]; Rag-/- mice, Dabigatran etexilate 30 mg/kg orally daily", "result": "enhancement"}
    ]},
    {"molecule": "B1", "values": [
      {"measurement": "average spleen weight", "setting": "[2]; Factor VIII KO SCID mice", "result": "314.89 ± 121.51", "unit": "mg"},
      {"measurement": "average spleen weight, Factor VIII KO SCID versus non-hemophilic mice", "setting": "[2]; G-CSF treated mice", "result": 2.6, "unit": "fold"},
      {"measurement": "average spleen weight", "setting": "[2]; non-hemophilic NOD-SCID mice", "result": "118.5 ± 25.56", "unit": "mg"},
      {"measurement": "average spleen weight", "setting": "C57BL mice; C57BL hemophilic (Hem F8, Factor VIII KO) mice", "result": "256.03 ± 149.86 mg and 261 ± 154 mg"},
      {"measurement": "average spleen weight", "setting": "C57BL mice; non-hemophilic C57BL mice", "result": "181.22 ± 61.43", "unit": "mg"}
    ]}
  ]
}
